These results are taken from ChEMBL document CHEMBL2311386, “Alkyl substituted 2'-benzoylpyridine thiosemicarbazone chelators with potent and selective anti-neoplastic activity: novel ligands that limit methemoglobin formation” (J Med Chem, 2013).

For orientation: IC50 means the point on the concentration scale where inhibition reaches its midpoint.

Data set [1] is described as follows: Therapeutic index, ratio of IC50 for human MRC5 cells to IC50 for human SK-N-MC cells. It counts as cell-based. The conditions noted are these: MRC5 cells and SK-N-MC cells, read-out: Ratio IC50.
Data set [2] can be described thus: Induction of ascorbate oxidation in citrate buffer in presence of 10 uM Fe3+ at 1 to 60 uM. It is filed as physicochemical.
Data set [3] concerns SK-N-MC. Briefly: Cytotoxicity against human SK-N-MC cells assessed as growth inhibition after 72 hrs by MTT assay. It is filed as functional, cell-based.
The nature of data set [4]: Toxicity in intact human RBC assessed as methemoglobin formation using Fe(compound)2 complex at 25 uM after 3 hrs relative to untreated control. It is filed as cell-based. The settings on record: erythrocyte.
A short description of data set [5]: Toxicity in human RBC lysates assessed as methemoglobin formation using Fe(compound)2 complex at 25 uM after 3 hrs relative to control. The arrangement: species or system Lysate. The conditions noted are these: erythrocyte.
A short description of data set [6]: Toxicity in intact human RBC assessed as methemoglobin formation at 25 uM after 3 hrs relative to untreated control. It counts as cell-based. The conditions noted are these: erythrocyte.
The test system of another data set is MRC5. Briefly: Cytotoxicity against human MRC5 cells assessed as growth inhibition after 72 hrs by MTT assay. The settings on record: MRC5, 72 h. It counts as cell-based. In general terms: Formazan colour is commonly taken as a measure of viable cells.
A short description of data set [7]: Toxicity in human RBC lysates assessed as methemoglobin formation at 25 uM after 3 hrs relative to control. The arrangement: species or system Lysate. The conditions noted are these: erythrocyte.
The subject of data set [8] is SK-N-MC. Briefly: Reduction of cellular 59Fe uptake from 59Fe-Transferrin in human SK-N-MC cells assessed as 59Fe level prelabeled with 59Fe2-Tf at 25 uM after 3 hrs relative to control. It counts as functional. The arrangement: scale not given: the % may be the effect or the level left.
Data set [9] in a line: Toxicity in human RBC lysates assessed as methemoglobin formation at 25 uM after 3 hrs (reference value: 1.2 +/- 8%). The settings on record: erythrocyte. It counts as cell-based, Lysate.
Data set [10] is described as follows: Toxicity in intact human RBC assessed as methemoglobin formation using Fe(compound)2 complex at 25 uM after 3 hrs relative to free ligand. The settings on record: erythrocyte.

Some results are limits rather than exact numbers.

`CN(C)C(=S)N/N=C(\c1ccccc1)c1ccccn1`: in data set [1], the selectivity ratio came out at 202. The Activity result in [2] is given as “Not Active”. Besides, the IC50 in the data set with SK-N-MC [3] worked out at 5 nM.

With `NC(=S)N/N=C(\c1ccccc1)c1ccccn1`, in data set [1], the selectivity ratio was above 3. For the same compound, the Activity result is “Toxic” in data set [4]; “Non-toxic” in data set [5]; “Toxic” in data set [6]; “Non-toxic” in data set [7]; “Active” in data set [2]. In addition, the IC50 in the data set with MRC5 was above 12500 nM; in the data set on SK-N-MC [3] it was 3800 nM.

`CNC(=S)N/N=C(\c1ccc(C(C)(C)C)cc1)c1ccccn1`: the selectivity ratio in data set [1] turned out to be 164. Besides, the Activity entry in data set [4], in data set [5], in data set [6] and in data set [7] was “Non-toxic” in each case. Moreover, the IC50 came out at 2460 nM with MRC5 and 15 nM in the data set with SK-N-MC [3].

With `CC(C)(C)c1ccc(/C(=N\NC(=S)Nc2ccccc2)c2ccccn2)cc1`, in data set [1], the selectivity ratio turned out to be 17. For the same compound, the Activity result in data set [4], in data set [5], in data set [6] and in data set [7] was “Non-toxic” throughout. Also, the IC50 with MRC5 was determined as 1890 nM; with SK-N-MC [3] it was 109 nM.

For the compound `COc1ccc(/C(=N\NC(=S)Nc2ccccc2)c2ccccn2)cc1`, in [1], the selectivity ratio was 45. Further, the Activity entry in data set [4], in [5], in [6] and in [7] was “Non-toxic” each time. In addition, the IC50 in the data set with MRC5 turned out to be 864 nM; in the data set on SK-N-MC [3], 19 nM.

With `Cc1ccc(/C(=N\NC(=S)Nc2ccccc2)c2ccccn2)cc1`, the selectivity ratio in data set [1] came out at 63. Further, the Activity result in data set [4], in [5], in [6] and in data set [7] was “Non-toxic” in each case. Further, the IC50 in the data set on MRC5 was 1520 nM; with SK-N-MC [3], 24 nM.

For `CN(C)C(=S)N/N=C(\c1ccc(C(C)(C)C)cc1)c1ccccn1`, the selectivity ratio in data set [1] is 15. Also, the Activity result in data set [4] is reported as “Non-toxic”; in data set [6] it was “Non-toxic”; in data set [2] it was “Not Active”. Further, the IC50 with MRC5 came out at 1070 nM; with SK-N-MC [3], 72 nM.

`COc1ccc(/C(=N\NC(=S)N(C)C)c2ccccn2)cc1`: the selectivity ratio in data set [1] turned out to be 66. Besides, the Activity result is reported as “Non-toxic” in data set [4], 8% with SK-N-MC [8], “Non-toxic” in data set [6] and “Not Active” in [2]. The IC50 turned out to be 1140 nM with MRC5 and 17 nM with SK-N-MC [3].

Turning to `Cc1ccc(/C(=N\NC(=S)N(C)C)c2ccccn2)cc1`, the selectivity ratio in data set [1] was determined as 131. Further, the Activity entry in [4] is “Non-toxic”; in the data set on SK-N-MC [8], 8%; in [6], “Non-toxic”; in data set [2] it was “Not Active”. Besides, the IC50 in the data set with MRC5 is 921 nM; in the data set with SK-N-MC [3], 7 nM.

Turning to `CCNC(=S)N/N=C(\c1ccc(OC)cc1)c1ccccn1`, the selectivity ratio in data set [1] was found to be 102. In addition, the Activity result in data set [4] was “Non-toxic”; in [5], “Non-toxic”; in the data set on SK-N-MC [8], 8%; in data set [6], “Non-toxic”; in data set [7], “Non-toxic”. Moreover, the IC50 is 1650 nM with MRC5 and 16 nM in the data set on SK-N-MC [3].

In the case of `CCNC(=S)N/N=C(\c1ccc(C(C)(C)C)cc1)c1ccccn1`, in data set [1], the selectivity ratio came to 147. Further, the Activity entry in data set [4], in data set [5], in [6] and in data set [7] was “Non-toxic” each time. Besides, the values for the IC50 in the data set on MRC5 and with SK-N-MC [3] were 2940 nM and 20 nM, respectively.

In the case of `CCNC(=S)N/N=C(\c1ccc(C)cc1)c1ccccn1`, the selectivity ratio in data set [1] was 164. Also, the Activity entry in data set [4] is “Non-toxic”; in [5], “Non-toxic”; with SK-N-MC [8] it was 8%; in data set [6], “Non-toxic”; in data set [7], “Non-toxic”. Also, the IC50 was found to be 2140 nM in the data set on MRC5 and 13 nM in the data set on SK-N-MC [3].

For `CNC(=S)N/N=C(\c1ccc(OC)cc1)c1ccccn1`, in [1], the selectivity ratio came to 92. The Activity entry in data set [4] is listed as “Non-toxic”; in [5], “Non-toxic”; in the data set with SK-N-MC [8] it was 8%; in [6], “Non-toxic”; in data set [7], “Non-toxic”. The IC50 stood at 2030 nM with MRC5 and 22 nM in the data set with SK-N-MC [3].

As to `CNC(=S)N/N=C(\c1ccc(C)cc1)c1ccccn1`, the selectivity ratio in [1] amounted to 141. The Activity entry in data set [4] is “Non-toxic”; in [5], “Toxic”; with SK-N-MC [8], 8%; in data set [6] it was “Non-toxic”; in data set [7], “Toxic”. Also, the values for the IC50 with MRC5 and in the data set on SK-N-MC [3] were 2120 nM and 15 nM, respectively.

On to `CC(C)(C)c1ccc(/C(=N\NC(N)=S)c2ccccn2)cc1`, for which the selectivity ratio in data set [1] came to 58. Also, the Activity entry is “Non-toxic” in data set [4]; “Non-toxic” in data set [5]; “Non-toxic” in data set [6]; “Non-toxic” in data set [7]; “Active” in [2]. The IC50 in the data set on MRC5 was determined as 814 nM; in the data set with SK-N-MC [3] it was 14 nM.

In the case of `Cc1ccc(/C(=N\NC(N)=S)c2ccccn2)cc1`, the selectivity ratio in [1] is above 85. Further, the Activity result in [4] was “Toxic”; in [5], “Toxic”; in the data set on SK-N-MC [8], 8%; in [6] it was “Toxic”; in data set [7] it was “Toxic”; in data set [2] it was “Active”. Further, the IC50 in the data set on MRC5 was above 12500 nM; with SK-N-MC [3], 146 nM.

As for `COc1ccc(/C(=N\NC(N)=S)c2ccccn2)cc1`, the selectivity ratio in data set [1] was above 3. In addition, the Activity entry in [4] is “Toxic”; in [5] it was “Non-toxic”; in the data set on SK-N-MC [8], 8%; in data set [6], “Toxic”; in [7] it was “Non-toxic”; in data set [2] it was “Active”. The IC50 in the data set with MRC5 was above 12500 nM; in the data set on SK-N-MC [3], 3950 nM.

For the compound `CNC(=S)N/N=C(\c1ccccc1)c1ccccn1`, in data set [1], the selectivity ratio is 116. In addition, the Activity result in [4], in data set [5], in data set [6] and in data set [7] was “Non-toxic” throughout. Also, the IC50 in the data set with SK-N-MC [3] turned out to be 20 nM.

Consider `CN(C)C(=S)NN=C(c1ccccn1)c1ccccn1`, for which the results for the Activity (in [9]; in the data set with SK-N-MC [8]; in data set [2]) were 12%, 4% and “Active”, respectively. For the same compound, the “fold change (FC)” value in data set [6] stood at 45; in data set [10], 2.3. Moreover, the IC50 with SK-N-MC [3] turned out to be 7 nM.

Take `S=C(N/N=C(\c1ccccc1)c1ccccn1)Nc1ccccc1`: the selectivity ratio in data set [1] turned out to be 36. Moreover, the Activity entry in [4], in [5], in data set [6] and in [7] was “Non-toxic” each time. Moreover, the IC50 in the data set on MRC5 stood at 571 nM; in the data set on SK-N-MC [3], 16 nM.

For the compound `CCNC(=S)N/N=C(\c1ccccc1)c1ccccn1`, the selectivity ratio in data set [1] is 106. Also, the Activity entry in data set [4], in [5], in data set [6] and in [7] was “Non-toxic” each time. Besides, the values for the IC50 in the data set on MRC5 and in the data set on SK-N-MC [3] were 1490 nM and 14 nM, respectively.

Regarding `CC(=O)N(O)CCCCCNC(=O)CCC(=O)N(O)CCCCCNC(=O)CCC(=O)N(O)CCCCCN` [DEFEROXAMINE], the Activity in the data set with SK-N-MC [8] stood at 77%.

As to `NC(=S)N/N=C/c1ncccc1N` [TRIAPINE], the figures for the Activity (in data set [9]; in the data set with SK-N-MC [8]) were 17% and 54%, respectively. The “fold change (FC)” value in [6] is given as 38.
